Data on 21 compounds can be found in ChEMBL document CHEMBL5316287 (J Med Chem, 2023).

Data set [1] has as its target T1, Histone acetyltransferase p300 (Homo sapiens, UniProt Q09472). The experiment in a line: Inhibition of EP300 in human LK2 cells assessed as reduction in intracellular H3K27 acetylation incubated for 3 hrs by chemiluminescence based ELISA. In kind it is cell-based.
In data set [2] the target is T1, Histone acetyltransferase p300. The experiment in a line: Inhibition of recombinant human full length EP300 assessed as inhibition of H4 peptide acetylation using biotinylated H4 peptide as substrate in presence of Acetyl-CoA incubated for 60 mins by TR-FRET assay. (Time-resolved FRET reads energy transfer from a long-lived donor to a nearby acceptor.)
Data set [3] in a line: AUC in BALB/cAnNCrlCrlj mouse at 10 mg/kg,po. In kind it is ADME, organism-based. More on the design: dose 10 mg/kg, route po. The following applies: in vivo.
Data set [4] can be described thus: Unbound AUC in BALB/cAnNCrlCrlj mouse at 10 mg/kg,po. In kind it is ADME, organism-based. The following applies: in vivo.
Data set [5] can be described thus: Cmax in BALB/cAnNCrlCrlj mouse at 10 mg/kg,po. In kind it is ADME, organism-based. The following applies: in vivo. Set-up: dose 10 mg/kg, route po.
Data set [6] can be described thus: Half life in BALB/cAnNCrlCrlj mouse at 10 mg/kg,po. In kind it is ADME, organism-based. To be noted: in vivo.
Data set [7] in a line: Volume of distribution at steady state in BALB/cAnNCrlCrlj mouse at 2 mg/kg,iv administered as DMA/Tween80/saline (1:1:8 ratio) solution. In kind it is ADME, organism-based. The following applies: in vivo, read-out: Vdss.
Data set [8] in a line: Unbound clearance in BALB/cAnNCrlCrlj mouse at 2 mg/kg,iv administered as DMA/Tween80/saline (1:1:8 ratio) solution. In kind it is ADME, organism-based. To be noted: in vivo.
The nature of data set [9]: Oral bioavailability in BALB/cAnNCrlCrlj mouse at 10 mg/kg. The following applies: in vivo; for F: po, 10 mg/kg. In kind it is ADME, organism-based.
Data set [10] in a line: 1-Octanol/PBS partition coefficient, logD of the compound at pH 7.4 incubated for 30 mins by shake flask technique based HPLC-LC/MS analysis. In kind it is physicochemical.
Data set [11] is described as follows: Metabolic stability in human liver microsomes assessed as intrinsic clearance at 1 uM. In kind it is ADME, Microsome. (Microsomes from liver hold many membrane-bound enzymes, among them those of drug oxidation.)
The nature of data set [12]: Metabolic stability in mouse liver microsomes assessed as intrinsic clearance at 1 uM. In kind it is ADME, Microsome.
A short description of data set [13]: Volume of distribution at steady state in BALB/cAnNCrlCrlj mouse at 1 mg/kg,iv administered as DMA/Tween80/saline (1:1:8 ratio) solution. In kind it is ADME, organism-based. The following applies: in vivo, read-out: Vdss.
The nature of data set [14]: Clearance in BALB/cAnNCrlCrlj mouse at 1 mg/kg,iv administered as DMA/Tween80/saline (1:1:8 ratio) solution. In kind it is ADME, organism-based. To be noted: in vivo.
Data set [15] in a line: Unbound clearance in BALB/cAnNCrlCrlj mouse at 1 mg/kg,iv administered as DMA/Tween80/saline (1:1:8 ratio) solution. In kind it is ADME, organism-based. To be noted: in vivo.
Data set [16] can be described thus: Volume of distribution at steady state in BALB/cAnNCrlCrlj mouse at 1 mg/kg,iv administered as DMS0/10% SBE-7-betaCD (1:9 ratio) solution. In kind it is ADME, organism-based. The following applies: in vivo, read-out: Vdss.
A short description of data set [17]: Unbound clearance in BALB/cAnNCrlCrlj mouse at 1 mg/kg,iv administered as DMS0/10% SBE-7-betaCD (1:9 ratio) solution. The following applies: in vivo. In kind it is ADME, organism-based.
The mark [18] stands for this setting: BALB/cAnNCrlCrlj, read-out: AUC.

T1 sequence (Q09472 whole entry): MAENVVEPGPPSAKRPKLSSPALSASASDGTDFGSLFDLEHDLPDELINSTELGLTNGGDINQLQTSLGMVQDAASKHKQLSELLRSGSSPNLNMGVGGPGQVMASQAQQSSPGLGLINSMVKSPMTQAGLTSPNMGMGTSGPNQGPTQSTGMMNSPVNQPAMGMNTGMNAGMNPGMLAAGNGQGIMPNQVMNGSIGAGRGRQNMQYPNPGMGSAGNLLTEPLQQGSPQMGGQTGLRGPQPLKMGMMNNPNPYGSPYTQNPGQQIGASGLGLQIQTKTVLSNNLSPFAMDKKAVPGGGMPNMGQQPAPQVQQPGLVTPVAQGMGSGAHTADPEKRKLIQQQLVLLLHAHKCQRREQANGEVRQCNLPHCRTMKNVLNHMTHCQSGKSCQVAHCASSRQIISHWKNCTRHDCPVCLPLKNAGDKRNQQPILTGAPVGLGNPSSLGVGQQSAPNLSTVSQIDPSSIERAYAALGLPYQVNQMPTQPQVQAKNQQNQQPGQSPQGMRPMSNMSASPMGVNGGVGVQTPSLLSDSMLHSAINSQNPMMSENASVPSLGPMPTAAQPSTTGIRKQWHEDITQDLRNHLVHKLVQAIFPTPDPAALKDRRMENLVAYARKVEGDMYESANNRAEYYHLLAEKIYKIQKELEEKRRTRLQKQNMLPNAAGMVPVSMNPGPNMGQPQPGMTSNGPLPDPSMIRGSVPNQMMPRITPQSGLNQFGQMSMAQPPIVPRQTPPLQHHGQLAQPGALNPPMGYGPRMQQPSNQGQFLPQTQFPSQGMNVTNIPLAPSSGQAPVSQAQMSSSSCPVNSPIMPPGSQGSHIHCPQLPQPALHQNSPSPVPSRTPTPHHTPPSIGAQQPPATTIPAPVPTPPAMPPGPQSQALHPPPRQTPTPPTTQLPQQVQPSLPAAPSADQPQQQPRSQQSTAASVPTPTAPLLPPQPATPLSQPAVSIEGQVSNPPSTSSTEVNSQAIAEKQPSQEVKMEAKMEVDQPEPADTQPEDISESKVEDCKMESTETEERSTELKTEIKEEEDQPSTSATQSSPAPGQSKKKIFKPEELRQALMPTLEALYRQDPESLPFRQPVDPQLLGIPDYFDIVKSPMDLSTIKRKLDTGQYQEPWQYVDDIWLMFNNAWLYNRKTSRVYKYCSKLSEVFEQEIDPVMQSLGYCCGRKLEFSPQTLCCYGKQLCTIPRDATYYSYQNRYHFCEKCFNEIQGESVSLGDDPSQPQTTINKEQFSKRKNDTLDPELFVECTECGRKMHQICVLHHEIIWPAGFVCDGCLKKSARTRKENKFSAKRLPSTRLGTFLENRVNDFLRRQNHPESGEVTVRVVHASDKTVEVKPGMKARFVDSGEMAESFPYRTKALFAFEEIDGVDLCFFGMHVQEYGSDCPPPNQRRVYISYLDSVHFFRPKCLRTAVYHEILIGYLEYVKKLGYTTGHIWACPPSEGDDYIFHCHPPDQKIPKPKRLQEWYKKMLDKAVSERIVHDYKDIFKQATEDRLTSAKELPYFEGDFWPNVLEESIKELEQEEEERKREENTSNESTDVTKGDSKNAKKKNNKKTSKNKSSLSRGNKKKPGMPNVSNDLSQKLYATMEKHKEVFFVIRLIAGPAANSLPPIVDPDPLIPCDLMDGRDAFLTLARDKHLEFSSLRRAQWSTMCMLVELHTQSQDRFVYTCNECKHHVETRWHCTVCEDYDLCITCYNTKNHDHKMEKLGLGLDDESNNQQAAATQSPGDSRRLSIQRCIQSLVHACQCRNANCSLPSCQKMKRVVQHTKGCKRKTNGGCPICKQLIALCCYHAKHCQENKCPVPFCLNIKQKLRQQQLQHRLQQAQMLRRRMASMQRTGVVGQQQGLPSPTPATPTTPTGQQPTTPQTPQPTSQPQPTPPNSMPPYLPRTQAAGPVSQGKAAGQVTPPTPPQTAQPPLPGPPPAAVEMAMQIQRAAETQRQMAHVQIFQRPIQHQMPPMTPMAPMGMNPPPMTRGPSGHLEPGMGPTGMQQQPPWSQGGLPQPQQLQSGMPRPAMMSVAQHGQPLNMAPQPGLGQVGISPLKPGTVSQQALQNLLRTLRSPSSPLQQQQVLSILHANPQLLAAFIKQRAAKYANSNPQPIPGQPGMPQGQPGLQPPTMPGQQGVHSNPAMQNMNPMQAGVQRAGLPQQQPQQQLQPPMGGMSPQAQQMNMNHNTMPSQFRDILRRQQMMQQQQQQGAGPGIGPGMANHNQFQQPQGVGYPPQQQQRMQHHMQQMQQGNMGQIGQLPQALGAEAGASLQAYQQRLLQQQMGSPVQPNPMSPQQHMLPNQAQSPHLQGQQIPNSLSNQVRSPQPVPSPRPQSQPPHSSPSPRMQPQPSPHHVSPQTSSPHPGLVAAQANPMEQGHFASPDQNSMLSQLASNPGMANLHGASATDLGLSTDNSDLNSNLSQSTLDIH

`COc1ccc(C2(C(=O)N3CCC[C@@H]3C(=O)Nc3ccc4[nH]ccc4c3)CCCC2)cc1`: the 50% inhibitory concentration (IC50) (as a rule, the concentration that inhibits the measured activity by half) in data set [1] stood at 709 nM.

For `COc1ccc(C2(C(=O)N3CCC[C@@H]3C(=O)Nc3ccc4cn[nH]c4c3)CCCC2)cc1`, the IC50 in data set [2] was 500 nM; in data set [1] it was 2790 nM.

`COc1ccc(C2(C(=O)N3CCOCC(Cc4cccc5[nH]ncc45)C3)CCCC2)cc1` (stereo not given): in data set [3], the area under the curve (AUC) – broadly, the area under the concentration-time curve, a measure of exposure – was 0.1 µM·h. This compound also yielded a fAUC in [4] of 0.006 µM·h. In addition, in data set [5], the Cmax (usually the peak of the concentration-time curve) is 80 nM. Also, the half-life (in general, the time needed for the level to fall by half in the phase considered) in data set [6] is 2 h. The Vd in data set [7] turned out to be 1.76 L/kg. Besides, the CL free in data set [8] worked out at 1740 mL/min/kg. Further, the F in data set [9] came out at 31%.

Turning to `O=C(Nc1ccc2[nH]ncc2n1)[C@H]1C[C@@H](F)CN1C(=O)C1(c2ccc(O)cc2)CCCCC1`, the half-maximal inhibitory concentration (IC50) in data set [1] is 13 nM. Also, the log distribution coefficient (logD) – broadly, lipophilicity at a set pH, counting ionised and neutral species – at 0.5 h in [10] stood at 2.7. Also, the intrinsic clearance in [11] stood at 140 µL/min/mg. The AUC in data set [3] (setting [18]) was 0.87 µM·h. In data set [5], this compound had a maximum concentration (Cmax) of 340 nM. In data set [6], this compound had a half-life of 2.8 h.

Take `O=C(Nc1ccc2[nH]ncc2n1)[C@H]1C[C@@H](F)CN1C(=O)C1(c2ccc(C(=O)C(F)(F)F)cc2)CCCCC1`: the 50% inhibitory concentration (IC50) in data set [1] was 21 nM. In [10], the logD at 0.5 h was determined as 3.4. Further, the “intrinsic clearance (CLint)” value in data set [12] came out at 380 µL/min/mg. Also, in [11], the intrinsic clearance stood at 150 µL/min/mg.

In the case of `COc1ccc(C2(C(=O)N3C[C@H](F)C[C@@H]3C(=O)Nc3ccc4[nH]ncc4n3)CCCCC2)cc1F`, the IC50 in [1] worked out at 16 nM. Also, the pH-dependent lipophilicity (logD) at 0.5 h in [10] was 3.1. Moreover, the “intrinsic clearance (CLint)” value in data set [12] came to 400 µL/min/mg. For the same compound, the intrinsic clearance in data set [11] came to 230 µL/min/mg. Moreover, the AUC in [3] (setting [18]) came out at 16.8 µM·h. The fAUC in data set [4] is 1.39 µM·h. This compound had a Cmax in data set [5] of 12700 nM. The same compound had a half-life in data set [6] of 1.2 h. Further, in data set [9] (BALB/cAnNCrlCrlj), the bioavailability (usually the share of a dose that reaches the circulation, judged against a reference dose that is usually intravenous) came to 62%. The Vd in [13] turned out to be 0.15 L/kg. Further, the clearance – broadly, the volume of plasma or blood freed of the substance per unit of time – in data set [14] came to 6.3 mL/min/kg. In addition, the CL free in [15] was 76 mL/min/kg.

Turning to `COc1ccc(C2(C(=O)N3CCC[C@@H]3C(=O)Nc3cccc4[nH]ncc34)CCCC2)cc1`, in data set [3] (setting [18]), the exposure (AUC) came out at 0.42 µM·h. In data set [4], this compound showed a fAUC of 0.029 µM·h. Moreover, the Cmax in data set [5] was determined as 320 nM. For the same compound, the half-life in data set [6] was 0.6 h.

For the compound `COc1ccc(C2(C(=O)N3C[C@H](F)C[C@@H]3C(=O)Nc3ccc4[nH]ncc4n3)CC(C)(C)C2)cc1`, the IC50 in data set [1] was 53 nM. This compound had a log distribution coefficient (logD) at 0.5 h in data set [10] of 3.1. Further, in data set [12], the “intrinsic clearance (CLint)” value came out at 240 µL/min/mg. Also, the intrinsic clearance in [11] was found to be 100 µL/min/mg.

Turning to `COc1ccc(C2(C(=O)N3C[C@H](O)C[C@@H]3C(=O)Nc3ccc4[nH]ncc4n3)CCCCC2)cc1`, the IC50 in [2] amounted to 50 nM; in data set [1], 106 nM.

Consider `COc1ccc(C2(C(=O)N3CS(=O)(=O)C[C@@H]3C(=O)Nc3ccc4[nH]ncc4n3)CCCCC2)cc1`, for which, in [1], the IC50 stood at 27 nM.

Take `COc1ccc(C2(C(=O)N3C[C@H](F)C[C@@H]3C(=O)Nc3ccc4[nH]ncc4n3)CCOCC2)cc1`: the 50% inhibitory concentration (IC50) in data set [1] was determined as 101 nM. In data set [10], this compound had a logD at 0.5 h of 1.6. For the same compound, the “intrinsic clearance (CLint)” value in data set [12] stood at 50 µL/min/mg. In data set [11], the intrinsic clearance was 10 µL/min/mg.

As to `CS(=O)(=O)c1ccc(C2(C(=O)N3C[C@H](F)C[C@@H]3C(=O)Nc3ccc4[nH]ncc4n3)CCC(F)(F)CC2)cc1`, the IC50 in [2] was found to be 55 nM; in data set [1], 95 nM. The compound also gave a logD at 0.5 h in data set [10] of 1.6. For the same compound, the area under the curve (AUC) in data set [3] (setting [18]) came out at 0.23 µM·h. For the same compound, the Cmax in [5] is 90 nM. For the same compound, the half-life in data set [6] was 1.5 h.

With `COc1ccc(C2(C(=O)N3C[C@H](F)C[C@@H]3C(=O)Nc3ccc4[nH]ncc4n3)CCC(F)(F)CC2)cc1F`, the IC50 in [2] is 36 nM; in [1], 57 nM. Further, the logD at 0.5 h in [10] worked out at 3. In addition, in data set [11], the intrinsic clearance stood at 40 µL/min/mg.

Regarding `COc1ccc(C(C)(C)C(=O)N2C[C@H](F)C[C@@H]2C(=O)Nc2ccc3[nH]ncc3n2)cc1`, the half-maximal inhibitory concentration (IC50) in [1] was 77 nM. Further, the log distribution coefficient (logD) at 0.5 h in [10] was determined as 1.9. For the same compound, in [12], the “intrinsic clearance (CLint)” value came to 380 µL/min/mg. Also, the intrinsic clearance in data set [11] stood at 10 µL/min/mg.

For the compound `COc1ccc(C2(C(=O)N3C[C@H](F)C[C@@H]3C(=O)Nc3ccc4[nH]ncc4n3)CC(F)(F)C2)cc1`, in data set [1], the half-maximal inhibitory concentration (IC50) came out at 20 nM. The compound further showed a log distribution coefficient (logD) at 0.5 h in [10] of 2.1. Moreover, the “intrinsic clearance (CLint)” value in data set [12] turned out to be 120 µL/min/mg. Besides, the intrinsic clearance in data set [11] worked out at 40 µL/min/mg. In addition, the exposure (AUC) in data set [3] (setting [18]) amounted to 2.29 µM·h. Further, the fAUC in data set [4] is 0.268 µM·h. In addition, the highest concentration (Cmax) in [5] was determined as 1610 nM. In addition, in data set [6], the half-life is 2.1 h.

For the compound `COc1ccc(C2(C(=O)N3C[C@H](F)C[C@@H]3C(=O)Nc3ccc4[nH]ncc4n3)CCCCC2)cn1`, in data set [1], the IC50 worked out at 15 nM. This compound also displayed a pH-dependent lipophilicity (logD) at 0.5 h in [10] of 2.3. In [12], the “intrinsic clearance (CLint)” value came out at 160 µL/min/mg. Moreover, the intrinsic clearance in data set [11] came out at 110 µL/min/mg.

Regarding `COc1c(F)cc(C2(C(=O)N3C[C@H](F)C[C@@H]3C(=O)Nc3ccc4[nH]ncc4n3)CCC(F)(F)CC2)cc1F`, the concentration for half-maximal inhibition (IC50) in data set [1] turned out to be 142 nM. The compound also had a logD at 0.5 h in data set [10] of 3.2. Further, the intrinsic clearance in [11] is 60 µL/min/mg.

Compound `COc1ccc(C2(C(=O)N3C[C@H](F)C[C@@H]3C(=O)Nc3ccc4[nH]ncc4n3)CCCCC2)cc1` returned a logD at 0.5 h in [10] of 3.1. The “intrinsic clearance (CLint)” value in [12] came to 770 µL/min/mg. Also, the intrinsic clearance in data set [11] was determined as 310 µL/min/mg. In addition, the area under the curve (AUC) in data set [3] is 15 µM·h. In data set [4], this compound returned a fAUC of 0.6 µM·h. The maximum concentration (Cmax) in [5] is 10800 nM. Besides, in data set [6], the half-life was 1.4 h. In data set [9], this compound came in with an F of 2.2%. Moreover, the Vd in [16] worked out at 0.29 L/kg. Further, the CL free in [17] was 133 mL/min/kg.

For the compound `COc1ccc(C2(C(=O)N3CCC[C@@H]3C(=O)Nc3ccc4[nH]ncc4c3)CCCC2)cc1`, the half-inhibitory concentration (IC50) in data set [1] worked out at 916 nM.

In the case of `COc1ccc(C2(C(=O)N3CCC[C@@H]3C(=O)Nc3ccc4[nH]ncc4n3)CCCC2)cc1`, the IC50 came out at 24 nM in data set [2] and 52 nM in data set [1].

In the case of `COc1ccc(C2(C(=O)N3CCC[C@@H]3C(=O)Nc3cccc4[nH]ccc34)CCCC2)cc1`, in data set [1], the IC50 came out at 304 nM.
